Where a SMILES comes first, the peptide text is derived from it. [ ]: non-standard residue; d: D form. The star is where a group is joined. Sta = CC(C)C[C@H](N)[C@@H](O)CC(=O)O; Isovaleryl = CC(C)CC(=O)*
Tests used:
hog renin = settings: after the injection of hog renin into nephrectomized rats; cited from earlier work
human renin = target: T1, human renin (Homo sapiens, UniProt P00797); experiment: Human renin inhibition in vitro; format: biochemical; settings: conversion of angiotensinogen to angiotensin I, 2 h at 37° C., pH 7.4
T1 construct: purchased National Institute for Biological Standards, London
T1 sequence (P00797 67-406): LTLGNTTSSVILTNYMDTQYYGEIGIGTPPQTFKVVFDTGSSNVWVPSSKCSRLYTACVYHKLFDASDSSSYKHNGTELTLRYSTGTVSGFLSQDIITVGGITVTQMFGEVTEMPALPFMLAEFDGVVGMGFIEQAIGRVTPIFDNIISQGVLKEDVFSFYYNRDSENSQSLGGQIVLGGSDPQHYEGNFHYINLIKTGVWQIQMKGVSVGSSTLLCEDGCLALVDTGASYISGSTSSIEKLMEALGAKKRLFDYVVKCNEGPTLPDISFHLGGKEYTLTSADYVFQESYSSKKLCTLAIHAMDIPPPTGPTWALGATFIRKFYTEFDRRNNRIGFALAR
Experimental: Compounds of Formula I were evaluated as inhibitors of human renin in an in vitro assay, as follows: This human renin inhibition test has been previously described in detail [Papaioannou et al., Clinical and Experimental Hypertension, A7(9), 1243-1257 (1985)-]. Human renin was obtained from the National Institute for Biological Standards, London. An incubation mixture was prepared containing the following components: in a total volume of 0.25 mL: 100 mM Tris-acetate buffer at pH 7.4, 25×10^−6 Goldblatt units of renin, 0.05 mL of plasma from human volunteers taking oral contraceptives, 6.0 mM Na-EDTA, 2.4 mM phenylmethyl sulfonyl fluoride, 1.5 mM 8-hydroxyquinoline, 0.4 mg/mL bovine serum albumin (BSA), and 0.024 mg/mL neomycin sulfate. This mixture was incubated for two hours at 37° C. in the presence or absence of renin inhibitors. The produced angiotensin I was determined by radioimmunoassay (New England Nuclear kit). Test compounds to be assayed were dissolved in DMSO and diluted with 100 mM Tris-acetate buffer at pH 7.4 containing 0.5% BSA to the appropriate concentration. The final concentration of organic solvent in the reaction mixture was less than 1%. Control incubations at 37° C. were used to correct for effects of organic solvent on renin activity.

IC50 (human renin)	SMILES	blood pressure in vivo (hog renin)
–	CC(C)CC(=O)N[C@H](C(=O)N[C@H](C(=O)N[C@@H](CC(C)C)[C@@H](O)CC(=O)N[C@@H](C)C(=O)N[C@@H](CC(C)C)[C@@H](O)CC(=O)O)C(C)C)C(C)C [pepstatin] (Isovaleryl-VV[Sta]A[Sta]-OH)	reduce blood pressure
34 nM	C#CC[C@H](NC(=O)[C@@H](CC(=O)N(C)CCN(C)C)Cc1ccccc1)C(=O)N[C@@H](CC1CCCCC1)[C@@H](O)[C@@H](O)CC#C (relative stereo) [Example 1, N1-[1R*-[[[1S,1R*-(cyclohexylmethyl)-2S*,3R*-dihydroxyhexynyl]amino]carbonyl]-3-butynyl]-N-4-[2-(dimethylamino)ethyl]-N-4-methyl-2S*-(phenylmethyl)Butanediamide]	–

From US6667414B2, “Use of propargyl glycine amino propargyl diol compounds for treatment of congestive heart failure” (Pharmacia Corporation, priority 1991, dated 2003)
